“Also recorded” adds a separate entry of the source.
Legend:
Format in all cases: in vivo, mouse
[1] = tested on: adhesion formation in wild type C57BL/6J mice; assay: Adhesion induction (ischemic button) with HIF1A small molecule inhibitor treatment, adhesion scoring; settings: for adhesion formation: C57BL/6J mice, cryptotanshinone 200 mg/kg, FM19G11 2 mg/kg, echinomycin 10 or 20 ug/kg, PX12 25 mg/kg, immediately after injury, 4 hours after, then every 24 hours for 7 days, scored after 7 days; for adhesion score in a majority of the treated mice: scale 0-5, PX12 n=5, echinomycin n=15, 7 days after induction
Source text: (§1) Adhesion induction surgeries were done on wild type B6 (C57BL/6J (The Jackson Laboratory) mice aged 6-10 weeks. Mice were anesthetized by inhaled isoflurane until determined unconscious confirmed by toe-pinch test. The abdomen was disinfected with betadine and phosphate buffered saline (PBS). A left mid-clavicular incision was made in the skin running down the length of the mouse. A similar left-mid clavicular incision was made in the peritoneum running down the length of the peritoneum. The peritoneum was gently folded to the right and held down by a hemostat. A single, ischemic button was placed on the right half of the peritoneal wall by clamping a small (−5 mm diameter) piece of peritoneum and ligating the base with a 4-0 silk suture (Ethicon, 683G). Light abrasion on the button (24 times) and on the adjacent liver, cecum, and small and large bowels (7 times) was optionally performed (depending on the desired adhesion severity) with a surgical brush. Light brushing with fewer repetitions was performed to avoid pinpoint bleeding. The peritoneum was closed using 4-0 silk sutures and the skin was stapled closed (EZ Clips, 9 mm, Braintree Scientific Inc). Mice were allowed to recover on a heating pad and injected with 0.05-0.1 mg/kg of buprenorphine. Mice were followed closely and monitored daily for signs of morbidity for 7 days until euthanasia. Adhesed tissues were dissected, scored, and fixed in 2% paraformaldehyde overnight at 4 degrees.
In functional studies we assign a single score for an adhesion, based on the criteria detailed in the text above, taking into consideration both surface area contact and molecular makeup. […] We have observed adhesion areas with high surface area contact (a score of 3 or 4) with little or no collagen or macrophage involvement (F4/80-). Conversely, we have also observed adhesion areas with low surface area contact (a score of 2) with high collagen and macrophage infiltration. In these cases we will score adhesions based on surface area contact or number of organs involved, as we predict this is a more significant indicator of clinical outcome.
Adhesion induction surgeries were performed on 4-8 week old wild type B6 (C57BL/6J (The Jackson Laboratory) as previously described. 200 mg/kg of cryptotanshinone (Sigma Aldrich), 2 mg/kg of FM19G11 (Sigma Aldrich), 10 ug/kg or 20 ug/kg of echinomycin (Sigma Aldrich), or 25 mg/kg of PX12 (Sigma Aldrich) immediately after injury, 4 hours after injury, and every 24 hours subsequently for 7 days.
Adhesions were induced in wild type C57BL/6J mice using the method described above, with different intensity and scope of abrasions to induce a range of adhesion severity. These mice were allowed to recover for seven days before their adhesions were scored.
In our scheme, an adhesion with a score of 0 has no adhesion between two areas, with limited mesothelial thickening on the button (FIG. 3A). The area stains positive for MSLN and fibronectin (FIG. 3A). Mice with an adhesion score of 0 had no signs of morbidity and survived the 7 day recovery period (n=25). An adhesion score of 1 indicated a “string” adhesion, connecting the two adhesed areas with a light fibrous bridge (FIG. 3B). The string and surrounding areas were immunopositive for MSLN and fibronectin (FIG. 3B). Most mice with an adhesion score of 1 had no signs of morbidity and survived the 7 day recovery period (n=11).
All adhesions with scores of 2 or above involve a single direct contact between two tissues. […]

HIF1A = assay: Immunofluorescence staining of mesothelium surrounding buttons after inhibitor treatment; settings: 7 days after induction and treatment; control adhesions positive for PDPN, MSLN and HIF1A
Method: Immunofluorescence studies were performed on frozen sections. Frozen sections were thawed at room temperature for ten minutes and washed in PBS twice. Slides were blocked in 5% serum for 30 minutes at room temperature. Sections were subsequently stained with primary antibodies against PDPN (1:100, mouse monoclonal, Abcam), MSLN (1:200, rabbit monoclonal, ABBIOTEC), fibronectin (1:100, rabbit monoclonal, Abcam), F4/80 (1:100, rat monoclonal, Abcam), CD31 (1:100, rabbit monoclonal, Abcam), pan-collagen (1:100, rabbit polyclonal, Abcam), WT1 (1:100, rabbit polyclonal, Abcam), CD44 (1:100, rabbit polyclonal, Abcam), HIF1A (1:100, mouse monoclonal), and S100A4 (1:100, rabbit polyclonal, Abcam), overnight at 4 degrees, and washed three times in PBS. Slides were stained were incubated with secondary antibodies conjugated to Alex Fluor 488, 594, or 647 for one to two hours at room temperature. Stains were washed once with PBST and three times with PBS before nuclear staining with Hoechst 33342 (Life Technologies), for two minutes and mounted with Fluoromount G (Southern Biotech).
To explore whether inhibiting the HIF1A pathway in vivo can prevent adhesion formation, we treated mice that had undergone adhesion induction with small molecular inhibitors against HIF1A or its immediate downstream cascade. […] Mice were euthanized after 7 days and their adhesions were imaged and scored.

[2] = tested on: HIF1A and mesothelial target genes in injured mesothelial cells; assay: RNA sequencing of sorted injured mesothelium after echinomycin treatment
Method: A modified adhesion induction surgery was done according to previously described procedures on wild type C57BL/6J (The Jackson Laboratory). Two ischemic buttons were placed on each side of the peritoneum and no abrasion of the button or abdominal organs was done. Mice were allowed to recover for 6, 12, or 24 hours and euthanized. Ischemic buttons were dissected by cutting the base and placed in dissociation media (DMEM (Life Technologies, 10565-042), 50 mg/ml collagenase IV (Worthington Biochemical), 20 uM CaCl2). Buttons were homogenized using a single edge blade (Razor Blade Company), and incubated in dissociation media for 30 minutes at 37 C. The subsequent cell suspension was filtered through a 100 um filter and spun and washed with 2% fetal bovine serum (FBS) in PBS. Cells were treated with 1 ml of ACK lysis buffer (Life Technologies) for 5 minutes at 4 C and spun and washed. Cells were blocked with 1% goat serum (Life Technologies) for 10 minutes and stained with anti-PDPN (BioLegend, 8.1.1, 1:100), anti-LYVE-1 (eBioscience, ALY-7, 1:100), anti-CD31 (eBioscience, 390, 1:100), and anti-CD45 (BioLegend, 30-F11, 1:100) for 30 minutes at 4 C. Cells were spun down, filtered, and resuspended in 200 µl of 2% FBS in PBS. Cells were run through a FACSAria (BD Bioscences) and PDPN+LYVE1-CD31-CD45- cells were sorted directly into 750 ul of Trizol LS (Life Technologies).
Total RNA from sorted mesothelial population was isolated using Trizol (ThermoFisher) as per manufacturer's recommendation and was facilitated by addition of linear polyacrylamide (Sigma) as a carrier during RNA precipitation. Purified total RNA was treated with 4 units of RQ1 RNase-free DNase (Promega) at 37° C. for 1 hour to remove trace amounts of genomic DNA. The DNase-treated total RNA was cleaned-up using RNeasy micro kit (QIAGEN). 10-50 ng of total RNA was used as input for cDNA preparation and amplification using Ovation RNA-Seq System V2 (NuGEN). Amplified cDNA was sheared using Covaris S2 (Covaris) using the following settings: total volume […], duty cycle 10%, intensity 5, cycle/burst 100, total time 2 min. The sheared cDNA was cleaned up using Agencourt Ampure XP (Beckman Coulter) to obtain cDNA fragments>=400 base pairs (bp). 500 ng of sheared and size-selected cDNA were used as input for library preparation using NEBNext Ultra DNA Library Prep Kit for Illumina (New England BioLabs) as per manufacturer's recommendations. Resulting libraries (fragment distribution: 300-700 bp; peak 500-550 bp) were sequenced using HiSeq 4000 (Illumina) to obtain 2×150 base pair paired-end reads. The reads obtained were trimmed for base call quality and the presence of adapter sequences using Skewer (ref). High quality reads thus obtained were aligned to mouse genome using OLego (ref) and the levels of expressed mRNAs were estimated using cuffdiff2 (ref) and represented as fragments per kilo-base per million mapped reads (FPKM).
To broadly determine the causative transcriptional changes in injured mesothelial cells downstream of HIF1A inhibition, we treated 10 wild type C57BL/6J mice with (20 ug/kg) of echinomycin prior to and immediately following adhesion induction via placement of four ischemic buttons. Using a similar method as outlined above, we isolated the damaged mesothelium from buttons, sorted and isolated their RNA for sequencing.

[3] = tested on: adhesion formation in mice; assay: Adhesion induction with neutrophil/monocyte modulating treatments, adhesion score (Example 2); settings: for adhesion formation (adhesion score), pre-treatment: treated 24 hours prior to adhesion induction
Source text: as §1
Peritoneal washes from similar time points confirmed that increased numbers of neutrophils and macrophages enter the peritoneum.

adhesions in mice = assay: Pre-treatment 3 days prior to adhesion induction surgery, adhesion severity scale 0-5 (Example 3); settings: pre-treated 3 days prior to surgery, evaluated 7 days post injury, versus PBS control
Source text: as §1, with “Light abrasion on the button (24 times) and on the adjacent liver, cecum, and small and large bowels (7 times) was optionally performed (depending on the desired adhesion severity) with a surgical brush. Light brushing with fewer repetitions was performed to avoid pinpoint bleeding. The peritoneum was closed using 4-0 silk sutures and the skin was stapled closed (EZ Clips, 9 mm, Braintree Scientific Inc). Mice were allowed to recover on a heating pad and injected with 0.05-0.1 mg/kg of buprenorphine.” left out
Mice were pre-treated with either PLGA, thioglycollate, or PBS control 3 days prior to adhesion induction surgery as described in Example 1. Mice were evaluated 7 days post injury and evaluated on an adhesion severity scale from 0-5 for adhesions forming on the suture site (S) or the button (B). […]

Molecule: Cc1ccc(C(=O)COC(=O)c2cccc(NC(=O)c3ccc([N+](=O)[O-])cc3[N+](=O)[O-])c2)cc1 [FM19G11]
- adhesion formation [1]: reduce adhesion formation

Molecule: CCC(C)SSc1ncc[nH]1 (stereo not shown) [PX12]
- adhesion formation [1]: significantly reduced; also recorded: dramatic decrease in adhesion formation and frequency; also recorded: significant decreases in adhesion formation; also recorded: reduce adhesion formation
- adhesion score in a majority of the treated mice [1]: 0
- HIF1A immunofluorescence staining of mesothelium surrounding the buttons / adhesions (HIF1A): stained with only MSLN and PDPN

Molecule: CS[C@H]1SC[C@H]2C(=O)N(C)[C@@H](C(C)C)C(=O)OC[C@@H](NC(=O)c3cnc4ccccc4n3)C(=O)N[C@@H](C)C(=O)N(C)[C@@H]1C(=O)N(C)[C@@H](C(C)C)C(=O)OC[C@@H](NC(=O)c1cnc3ccccc3n1)C(=O)N[C@@H](C)C(=O)N2C [echinomycin]
- ITGAM, ITGB1, and ITGB2 gene expression after HIF1A inhibition ([2]; 20 ug/kg echinomycin): little difference in gene expression
- PDPN, MSLN, and S100A4 expression after treatment ([2]; 20 ug/kg echinomycin): increased in expression
- UPK1B and WT1 expression levels after treatment ([2]; 20 ug/kg echinomycin): dropped significantly
- number of genes normally upregulated along the 24 hour time course that were decreased with HIF1A inhibition ([2]; 20 ug/kg echinomycin): over 200 genes
- number of genes with little or decreased expression during the 24 hour time course that were upregulated by HIF1A inhibition ([2]; 20 ug/kg echinomycin): over 600 genes
- expression of known HIF1A targets VEGFb and transferrin (TRF) ([2]; 20 ug/kg echinomycin prior to and immediately following adhesion induction): downregulated
- adhesion formation [1]: significantly reduced; also recorded: dramatic decrease in adhesion formation and frequency; also recorded: significant decreases in adhesion formation; also recorded: significantly reduces the formation of adhesions
- adhesion score in a majority of the treated mice [1]: 0
- HIF1A immunofluorescence staining of mesothelium surrounding the buttons / adhesions (HIF1A): stained with only MSLN and PDPN

Molecule: Catalase
- adhesion formation (adhesion score), pre-treatment [3]: worsens adhesion formation

Molecule: MCP-1: monocyte chemoattractant protein-1, a known monocyte chemoattractant
- side effects in animals ([3]; MCP-1 administration (e.g., intraperitoneally) in animal models): little or no side effects
- adhesion formation (adhesion score), post-surgery treatment ([3]; treated for three days following adhesion induction surgery): diminish adhesion formation; also recorded: substantial reduction in adhesion grades

Molecule: thioglycollate
- adhesion formation (adhesion score), pre-treatment [3]: diminished adhesions
- severity of adhesions at the button (B) (adhesions in mice): significantly reduced severity of adhesions
- severity of adhesions at the suture site (S) (adhesions in mice): significantly reduced severity of adhesions

Reference: US10934355B2, “Methods and compositions for the prevention and treatment of surgical adhesions” (The Board of Trustees of the Leland Stanford Junior …, priority 2016, dated 2021)
